From PubChem BioAssay AID330 (DTP/NCI, 2004)
Inconclusive results and toxic doses are left out.

System: P388 leukemia ip, CD2F1 mice, survival T/C
Assay: NCI In Vivo Anticancer Drug Screen. Data for tumor model P388 Leukemia (intraperitoneal) in CD2F1 (CDF1) mice
Settings: endpoint: median survival time, higher = longer survival
How it was run: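 Mice carrying the transplanted tumor received test compound or vehicle. Survival was recorded in each group, and the value is the treated-group measurement divided by that of the vehicle-treated control group.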

[1] = dose: 60.0 mg/kg/injection, schedule: Q01DX005 (ip), vehicle: saline with Tween-80
[2] = dose: 120.0 mg/kg/injection, schedule: Q01DX005 (ip), vehicle: saline with Tween-80
[3] = dose: 50.0 mg/kg/injection, schedule: Q01DX005 (ip), vehicle: Klucel (hydroxypropylcellulose) (HPC)
[4] = dose: 100.0 mg/kg/injection, schedule: Q01DX005 (ip), vehicle: Klucel (hydroxypropylcellulose) (HPC)
[5] = dose: 50.0 mg/kg/injection, schedule: Q01DX005 (ip), vehicle: saline with Tween-80
[6] = dose: 100.0 mg/kg/injection, schedule: Q01DX005 (ip), vehicle: saline with Tween-80
[7] = dose: 200.0 mg/kg/injection, schedule: Q01DX005 (ip), vehicle: saline with Tween-80
[8] = dose: 240.0 mg/kg/injection, schedule: Q01DX005 (ip), vehicle: saline with Tween-80

With CC(C)NNC(=O)c1ccncc1 the T/C (dose: 12.5 mg/kg/injection, schedule: Q01DX009 (ip), vehicle: saline) was 96 % of control, the T/C (dose: 25.0 mg/kg/injection, schedule: Q01DX009 (ip), vehicle: saline) was 101 % of control and the T/C (dose: 50.0 mg/kg/injection, schedule: Q01DX009 (ip), vehicle: saline) was 103 % of control. For the same compound, the T/C (dose: 100.0 mg/kg/injection, schedule: Q01DX009 (ip), vehicle: saline) was 96 % of control, the T/C (dose: 200.0 mg/kg/injection, schedule: Q01DX009 (ip), vehicle: saline) was 98 % of control and the T/C (dose: 400.0 mg/kg/injection, schedule: Q01DX009 (ip), vehicle: saline) was 64 % of control.
In the case of Cc1cc(N2CCOCC2)n2c(nc3ccccc32)c1C#N, the T/C [1] is reported as 96 % of control and the T/C [2] is reported as 100 % of control.
For S=C(NCCc1ccccc1)N/N=C/c1ccc(Cl)cc1, the T/C [3] was 104 % of control and the T/C [4] was 100 % of control.
In the case of O=C(NC(CSSCC(NC(=O)c1ccc([N+](=O)[O-])cc1)C(=O)O)C(=O)O)c1ccc([N+](=O)[O-])cc1 (centres undefined), the T/C [5] is reported as 108 % of control, the T/C [6] is reported as 101 % of control and the T/C [7] is reported as 109 % of control.
With O=c1[nH]c(=S)[nH]c2c1CN(CCCN1CCN(CCCN3CNc4[nH]c(=S)[nH]c(=O)c4C3)CC1)CN2 the T/C [3] was 96 % of control, the T/C [4] was 94 % of control and the T/C (dose: 200.0 mg/kg/injection, schedule: Q01DX005 (ip), vehicle: Klucel (hydroxypropylcellulose) (HPC)) was 95 % of control.
For CCOC(=O)C1=C(Nc2ccc(Br)cc2)C(=O)N(CC)C1, the T/C [1] was 109 % of control, the T/C [2] was 100 % of control and the T/C [8] was 106 % of control.
In the case of CCN(CC)CCOC1C=C(C)C2CC1C2(C)C (centres undefined), the T/C (dose: 50.0 mg/kg/injection, schedule: Q01DX005 (ip), vehicle: saline) is reported as 101 % of control and the T/C (dose: 100.0 mg/kg/injection, schedule: Q01DX005 (ip), vehicle: saline) is reported as 101 % of control.
With Nc1ccc2ccccc2c1N=Nc1ccccc1 the T/C (dose: 50.0 mg/kg/injection, schedule: Q01DX009 (ip), vehicle: Klucel (hydroxypropylcellulose) (HPC)) was 117 % of control, the T/C (dose: 100.0 mg/kg/injection, schedule: Q01DX009 (ip), vehicle: Klucel (hydroxypropylcellulose) (HPC)) was 118 % of control and the T/C (dose: 200.0 mg/kg/injection, schedule: Q01DX009 (ip), vehicle: Klucel (hydroxypropylcellulose) (HPC)) was 120 % of control. The T/C (dose: 400.0 mg/kg/injection, schedule: Q01DX009 (ip), vehicle: Klucel (hydroxypropylcellulose) (HPC)) was 117 % of control.
CC12CC(CS(=O)C1)c1ccccc1N2 (centres undefined) was tested, and the T/C (dose: 100.0 mg/kg/injection, schedule: Q04DX002 (ip), vehicle: saline with Tween-80) was 97 % of control, the T/C (dose: 200.0 mg/kg/injection, schedule: Q04DX002 (ip), vehicle: saline with Tween-80) was 101 % of control and the T/C (dose: 400.0 mg/kg/injection, schedule: Q04DX002 (ip), vehicle: saline with Tween-80) was 100 % of control.
In the case of C/C(=N\N=P(c1ccccc1)(c1ccccc1)c1ccccc1)C(C)(C)C, the T/C (dose: 6.25 mg/kg/injection, schedule: Q01DX009 (ip), vehicle: Klucel (hydroxypropylcellulose) (HPC)) is reported as 100 % of control, the T/C (dose: 12.5 mg/kg/injection, schedule: Q01DX009 (ip), vehicle: Klucel (hydroxypropylcellulose) (HPC)) is reported as 95 % of control and the T/C (dose: 25.0 mg/kg/injection, schedule: Q01DX009 (ip), vehicle: Klucel (hydroxypropylcellulose) (HPC)) is reported as 94 % of control.
With Clc1cc(Cl)c2c(c1)[nH]c1nc3ccccc3nc12 the T/C (dose: 6.25 mg/kg/injection, schedule: Q01DX005 (ip), vehicle: saline with Tween-80) was 101 % of control, the T/C (dose: 12.5 mg/kg/injection, schedule: Q01DX005 (ip), vehicle: saline with Tween-80) was 90 % of control and the T/C [5] was 96 % of control. The T/C [6] was 100 % of control and the T/C [7] was 104 % of control.
O=NNc1ccc(-c2ccc([N+](=O)[O-])cc2)cn1 was tested, and the T/C (dose: 3.12 mg/kg/injection, schedule: Q01DX009 (ip), vehicle: saline) was 170 % of control and the T/C (dose: 6.25 mg/kg/injection, schedule: Q01DX009 (ip), vehicle: saline) was 108 % of control.
In the case of O=C1CSCc2sccc21, the T/C [1] is reported as 94 % of control, the T/C [2] is reported as 106 % of control and the T/C [8] is reported as 101 % of control.
In the case of O=c1c2ccccc2c2nc3ccccc3nc2c2ccccc12, the T/C (dose: 25.0 mg/kg/injection, schedule: Q01DX005 (ip), vehicle: saline with Tween-80) is reported as 91 % of control, the T/C [5] is reported as 97 % of control and the T/C [6] is reported as 96 % of control.
